According to patent US9591848B2, “Biofilm resistant polymer materials” (Abilene Christian Univ., priority 2008, dated 2017):
“Also recorded” adds a separate entry of the source.

Legend:
E. coli = test: Biofilm resistance of UV-cured coatings after E. coli growth and staining; assay type: cell-based; conditions: for biofilm resistance (lack of blue coloring): 15 and 20 weight % monomer in the coating; for biofilm formation: 15 and 20 weight percent monomer, increased E. coli broth concentration, approaching 10^9 cells/mL
Text: Materials and methods were the same as disclosed in the Examples 1 and 2, above, except that the polymers were not adhered to steel, but to 24-well, plastic (i.e., poly(styrene)) culture plates.
The coatings were applied to and UV-cured onto four uncoated 24-well plastic plates to a calculated thickness of two mils. The monomers of the compositions were phenyl acrylate (PA) as the non-biofilm resistant control monomer, 3-chlorophenyl acrylate (CPA), 2,4-dichlorophenyl acrylate (DCPA), 4-bromophenyl acrylate (BPA) and 2,4-dibromophenyl acrylate (DBPA).
The coatings were cured with the curing apparatus and sterilized with 95% ethanol. E. coli was grown in a LB agar broth and added to the cell plates with sterile, deionized water at four concentrations, one concentration per plate. The plates were incubated for twenty-four hours at 37° C. The E. coli was then rinsed from the plates with sterile, deionized water and sprayed with the cytology fixative [poly(ethylene glycol)-based]. After the fixative was air dried it was soaked with 95% ethanol for ten minutes for further sterilization. The plates were then rinsed with sterile, deionized water and four drops of Hema-diff solution were added for four seconds.

[1] = Roughness of cured coatings by atomic force microscopy (Sy, peak to valley distance); assay type: physicochemical; conditions: 5, 10, 15 and 20 weight percent monomer in the coating; FIGS. 1 and 2
Procedure: To determine the roughness of the cured formulations, polymers consisting of each of five monomers were tested using atomic force microscopy (AFM) scanning and applying the non-contact mode dragging of the cantilever. Each of the polymers consisting of the monomers: phenyl acrylate (PA), 3-chlorophenyl acrylate (CPA), 2,4-dichlorophenyl acrylate (DCPA), 4-bromophenyl acrylate (BPA) and 2,4-dibromophenyl acrylate (DBPA) were tested at 5, 10, 15 and 20 percent of the monomer by weight (the “Coating Level”).
Each scanning location was approximately an 80 μm×80 μm area (6400 μm^2). To eliminate the effects of interference on the roughness measurements, two scans were taken at each location in the X and Y direction. These two roughness calculations were averaged to yield the roughness calculation for each location. Three locations were selected for each plate and then the average roughness was calculated for all three locations in order to minimize statistical variance yielding an overall plate roughness average, Sa as determined via Equation 1.
[formula] […] The following equation was used to determine the average peak to valley distance, Sy value, (Equation 2) for each composition at each coating level. Sy=Speak−Svalley Equation 2 The Sy value is the value typically used in the industry to determine the propensity for biofilm resistance of a smooth surface.

Structure (SMILES) | biofilm resistance (lack of blue coloring) (E. coli; FIG. 4) | biofilm formation (E. coli) | smoothness of the coating (Sy) [1] | bacterial growth on the coating (blue tinting) (E. coli; coating containing the internal control monomer, 24 h at 37° C., FIG. 4) | biofilm inhibitory activity (E. coli; monomer without halogens, used as internal standard or control)
C=CC(=O)Oc1cccc(Cl)c1 [CPA, 3-chlorophenyl acrylate] | excellent biofilm resistance | no evidence of biofilm formation | – | – | –
C=CC(=O)Oc1ccc(Br)cc1Br [DBPA, 2,4-dibromophenyl acrylate] | excellent biofilm resistance | no evidence of biofilm formation | – | – | –
C=CC(=O)Oc1ccc(Cl)cc1Cl [DCPA, 2,4-dichlorophenyl acrylate] | excellent biofilm resistance | no evidence of biofilm formation | – | – | –
C=CC(=O)Oc1ccccc1 [PA, phenyl acrylate, reference compound] | – | – | did not enhance the smoothness | bacterial growth | no biofilm inhibitory activity; also recorded: biologically inactive
